± gives the expanded uncertainty stated by the source.
Tests used:
[1] = xn = mol fraction of the nth substance listed; settings: 298.15 K, 101 kPa, Liquid
[2] = 298.15 K, 101.33 kPa, Liquid; for viscosity: Capillary tube (Ostwald / Ubbelohde) method
[3] = isobaric coefficient of expansion; settings: 298.15 K; 101.33 kPa; Liquid; vibrating tube densimeter

CCCCCCCC [octane] + Cc1ccccc1
[1]
Settings | mass density [kg/m3]
x2 = 0.0398 | 692.41 ± 1
x2 = 0.1999 | 718.64 ± 0.98
x2 = 0.2791 | 731.62 ± 0.95
x2 = 0.3596 | 744.8 ± 0.92
x2 = 0.4416 | 758.23 ± 0.89
x2 = 0.6048 | 784.96 ± 0.82
x2 = 0.6825 | 797.69 ± 0.78
x2 = 0.7593 | 810.27 ± 0.75
x2 = 0.8463 | 824.52 ± 0.71
x2 = 0.9132 | 835.49 ± 0.67

CCCCCCC [heptane]
Settings | isobaric coefficient of expansion | mass density [kg/m3] | viscosity [mPa·s]
[2] | – | 679.69 ± 0.89 | 0.395 ± 0.005
[3] | 0.00124 ± 2e-05 1/K | – | –

CCCCCC [hexane] + Cc1ccccc1
[1]
Settings | mass density [kg/m3]
x2 = 0.0406 | 657.47 ± 0.92
x2 = 0.2028 | 690.93 ± 0.86
x2 = 0.2804 | 706.95 ± 0.84
x2 = 0.3596 | 723.29 ± 0.81
x2 = 0.4423 | 740.35 ± 0.79
x2 = 0.5997 | 772.81 ± 0.74
x2 = 0.6757 | 788.5 ± 0.71
x2 = 0.7597 | 805.83 ± 0.69
x2 = 0.8412 | 822.63 ± 0.67
x2 = 0.9199 | 838.87 ± 0.65

Cc1ccccc1 [toluene] + CCCCCCC
[1]
Settings | mass density [kg/m3]
x1 = 0.0398 | 678.24 ± 26
x1 = 0.1999 | 693.04 ± 25
x1 = 0.2791 | 721.62 ± 23
x1 = 0.3596 | 736.18 ± 22
x1 = 0.4416 | 764.46 ± 20
x1 = 0.6048 | 779.21 ± 19
x1 = 0.6825 | 793.71 ± 18
x1 = 0.7593 | 808.12 ± 18
x1 = 0.8463 | 823.09 ± 17
x1 = 0.9132 | 837.25 ± 16

CCCCC [pentane] + Cc1ccccc1
[1]
Settings | mass density [kg/m3]
x2 = 0.0415 | 629.87 ± 0.96
x2 = 0.2011 | 668.27 ± 0.9
x2 = 0.2799 | 687.21 ± 0.87
x2 = 0.3647 | 707.61 ± 0.84
x2 = 0.4341 | 724.3 ± 0.81
x2 = 0.6011 | 764.45 ± 0.75
x2 = 0.6821 | 783.95 ± 0.72
x2 = 0.7502 | 800.32 ± 0.7
x2 = 0.8213 | 817.43 ± 0.67
x2 = 0.9137 | 839.65 ± 0.65

Cc1ccccc1 [toluene]
Settings | isobaric coefficient of expansion | mass density [kg/m3] | viscosity [mPa·s]
[2] | – | 862.19 ± 0.62 | 0.552 ± 0.006
[3] | 0.00109 ± 2e-05 1/K | – | –

CCCCCCCC [octane]
Settings | isobaric coefficient of expansion | mass density [kg/m3] | viscosity [mPa·s]
[2] | – | 698.59 ± 1.7 | 0.514 ± 0.007
[3] | 0.00115 ± 2e-05 1/K | – | –

CCCCCCCCC [nonane]
Settings | isobaric coefficient of expansion | mass density [kg/m3] | viscosity [mPa·s]
[2] | – | 714.01 ± 1.7 | 0.665 ± 0.009
[3] | 0.00108 ± 2e-05 1/K | – | –

CCCCC [pentane]
Settings | isobaric coefficient of expansion | mass density [kg/m3] | viscosity [mPa·s]
[2] | – | 621.22 ± 0.99 | 0.216 ± 0.005
[3] | 0.0016 ± 3e-05 1/K | – | –

CCCCCCCCCC [decane]
Settings | isobaric coefficient of expansion | mass density [kg/m3] | viscosity [mPa·s]
[2] | – | 726.29 ± 0.81 | 0.861 ± 0.008
[3] | 0.00104 ± 2e-05 1/K | – | –

CCCCCCCCC [nonane] + Cc1ccccc1
[1]
Settings | mass density [kg/m3]
x2 = 0.0396 | 719.17 ± 1
x2 = 0.1938 | 731.3 ± 0.97
x2 = 0.2815 | 739.97 ± 0.94
x2 = 0.3621 | 749.08 ± 0.92
x2 = 0.4429 | 759.3 ± 0.89
x2 = 0.6 | 782.29 ± 0.82
x2 = 0.6627 | 792.62 ± 0.79
x2 = 0.7595 | 809.87 ± 0.75
x2 = 0.8399 | 825.37 ± 0.71
x2 = 0.9168 | 841.23 ± 0.67

CCCCCC [hexane]
Settings | isobaric coefficient of expansion | mass density [kg/m3] | viscosity [mPa·s]
[2] | – | 655.07 ± 0.93 | 0.295 ± 0.005
[3] | 0.00138 ± 3e-05 1/K | – | –

CCCCCCCCCC [decane] + Cc1ccccc1
[1]
Settings | mass density [kg/m3]
x2 = 0.0405 | 730.61 ± 0.8
x2 = 0.1975 | 740.67 ± 0.78
x2 = 0.2817 | 747.82 ± 0.77
x2 = 0.3619 | 755.75 ± 0.76
x2 = 0.4394 | 764.48 ± 0.75
x2 = 0.6 | 785.86 ± 0.72
x2 = 0.6811 | 798.34 ± 0.7
x2 = 0.7615 | 811.84 ± 0.68
x2 = 0.84 | 826.07 ± 0.66
x2 = 0.92 | 841.69 ± 0.64
